Test in all cases: NCI-60 cell line screen, 48 h
Test [1] has as its system UACC-257 melanoma.
For test [2], the system named is MCF7 breast.
In test [3] the test system is HOP-62 NSCLC.
For test [4], the system named is TK-10 renal.
The subject of test [5] is HCT-15 colon.
The test system of test [6] is RXF 393 renal.
Test [7] concerns PC-3 prostate.
The subject of test [8] is SF-295 CNS.
Test [9] relates to SK-OV-3 ovarian.
Test [10] concerns SK-MEL-2 melanoma.

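Exposure lasted 48 hours, with cells grown in 96-well plates and compounds tested at five concentrations. Here, GI50 denotes the concentration required for 50% inhibition of growth. TGI: concentration producing complete growth inhibition.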 Where a SMILES comes first, the peptide text is derived from it. [ ]: non-standard residue; d: D form.

GI50 and TGI data for 14 molecules are collected here from PubChem BioAssay (NCI).

`COc1ccc(F)cc1-c1ccnc2[nH]c(C3=CCN(C4CCC(CC(=O)O)CC4)CC3)cc12` (stereo not drawn): the GI50 in [1] is 0.307 µM; in test [2], 0.0625 µM; in test [3], 0.362 µM; in [4], 0.344 µM; in test [5], 0.249 µM; in test [6], 0.0413 µM. The GI50 in test [7] was 0.313 µM; in test [8], 0.286 µM; in test [9] it was 1.2 µM. Also, the TGI in [1] is over 100 µM; in test [2], 26.9 µM; in [3], over 100 µM; in test [4] it was over 100 µM; in [5] it was over 100 µM; in [6] it was 0.216 µM. The results for the TGI in [7], in test [8] and in test [9] were over 100 µM, 15.4 µM and over 100 µM, respectively.
Regarding `C=C1C(=O)OC2(C)CCC1CC1OC1(C)CCC=C(C)CCC2O` (stereo not drawn), the TGI in test [1], in test [2], in test [4], in test [10], in test [5] and in test [7] was over 100 µM in each case. Also, the TGI in [8] and in [9] was over 100 µM each time.
Turning to `COc1ccc2c(c1)C=CC1C2CC[C@]2(C)C(NC(=O)/C=C/c3ccc(O)c(O)c3)CCC12` (stereo partly drawn), the GI50 in test [1] was 20.8 µM; in [2], 6.28 µM; in test [3], 1.21 µM; in test [4], 2.82 µM; in test [10], 25.7 µM; in test [5], 3.05 µM. For the same molecule, the GI50 in test [6] is 17.6 µM; in test [7], 4.64 µM; in test [8], 31.7 µM. The TGI is 42.7 µM in [1]; 20.8 µM in test [2]; 7.59 µM in [3]; 10.3 µM in test [4]; 62.1 µM in test [10]; 13.3 µM in test [5]. The TGI in test [6] is 45.8 µM; in [7], 18 µM; in test [8] it was 70.3 µM.
For the molecule `COC(=O)[C@@H](C)C[C@H](Cc1ccccc1)NC(=O)c1csc([C@@H](C[C@H](C(C)C)N(C)C(=O)[C@@H](NC(=O)[C@H]2CCCCN2C)C(C(F)(F)F)C(F)(F)F)OC(C)=O)n1`, the GI50 in test [2] is 0.0118 µM; in test [3] it was 0.0651 µM; in [4], 4.6 µM; in test [10], 0.0777 µM; in [5], 0.0645 µM; in [7], 0.0452 µM. Moreover, the figures for the GI50 in test [8] and in [9] were 0.0368 µM and 0.07 µM, respectively. The TGI in test [2] was over 16.7 µM; in [3] it was over 16.7 µM; in test [4] it was over 16.7 µM; in test [10], over 16.7 µM; in test [5], over 16.7 µM; in [7], 3.87 µM. The TGI in test [8] and in test [9] was over 16.7 µM each time.
Turning to `COC(=N)CCCl`, the TGI in [1], in test [2], in test [3], in [4], in [5] and in test [6] was over 100 µM throughout. Also, the TGI in test [7], in test [8] and in test [9] was over 100 µM throughout.
Turning to `c1ccc(-c2cc3n4c(-c5ccccc5)nn(-c5ccccc5)c4cnc-3n2)cc1`, the GI50 in [1] is over 50 µM; in test [2], 4.26 µM; in test [3], 13.2 µM; in test [4], 19.3 µM; in [10] it was over 50 µM; in test [5], over 50 µM. The GI50 in [6] is 4.16 µM; in test [8], 2.35 µM; in [9], 11.8 µM. Further, the TGI in test [1], in test [2], in test [3], in [4], in test [10] and in [5] was over 50 µM each time. The TGI in [6] is 33.8 µM; in [8], over 50 µM; in test [9] it was over 50 µM.
As for `N/C(CC(=O)NOC(=O)c1ccccc1)=N/OC(=O)c1ccccc1`, the TGI in test [1] is over 100 µM; in test [2] it was 92.4 µM; in test [3], over 100 µM; in test [4], over 100 µM; in [5], over 100 µM; in test [6], 60.6 µM. Also, the TGI in test [7] was over 100 µM; in [8], 61.6 µM; in test [9], 97.3 µM.
Take `O=C(N/N=C/c1ccc(N(CCCl)CCCl)cc1)c1ccc(C(=O)N/N=C/c2ccc(N(CCCl)CCCl)cc2)cc1`: the GI50 in [1] was over 100 µM; in test [2], 0.38 µM; in [3], 0.653 µM; in test [4], over 100 µM; in test [10], 2.13 µM; in test [5], over 100 µM. Moreover, the GI50 was 7.63 µM in test [6], 0.213 µM in [8] and 10.5 µM in [9]. In addition, the TGI in test [1] was over 100 µM; in test [2] it was over 100 µM; in [3] it was over 100 µM; in test [4] it was over 100 µM; in [10], 33.3 µM; in test [5], over 100 µM. Also, the TGI in test [6], in [8] and in test [9] was over 100 µM in each case.
As for `CC(=O)/C(=C/N1CCN(C(=O)c2ccco2)C1=S)C(=O)c1ccccc1`, the GI50 in test [2] was 1.25 µM; in [3] it was 11.7 µM; in [4], 10.6 µM; in test [5] it was 4.71 µM; in [7], 17.1 µM; in test [8], 19.3 µM. Also, in [9], the GI50 is 17.5 µM. The TGI in test [2] is 4.2 µM; in [3], 27.7 µM; in [4], 28.6 µM; in test [5], 18.9 µM; in [7], over 50 µM; in test [8] it was over 50 µM. In test [9], the TGI was over 50 µM.
Take `CSCC[C@H](NC(=O)[C@@H](N)CC(N)=O)C(=O)N[C@@H](Cc1c[nH]c2ccccc12)C(=O)N[C@@H](CCC(N)=O)C(=O)N[C@@H](CCC(=O)O)C(=O)N[C@H](C(=O)NCC(=O)N[C@@H](CCCCN)C(=O)N[C@H](C)C(=O)O)C(C)C` (H-NMWQEVGK[dA]-OH): the TGI in test [1], in test [2], in [3], in test [4], in test [5] and in test [6] was over 100 µM throughout. In addition, the TGI in [7], in test [8] and in test [9] was over 100 µM in each case.
`O=[N+]([O-])c1ccc2nc(-c3ccc(Cl)cc3)[nH]c2c1`: the TGI in test [1] turned out to be 43.2 µM; in test [2], 62.8 µM; in test [3] it was 40.1 µM; in test [4] it was 72.5 µM; in test [5], 29.1 µM; in [7], 63.6 µM. For the same molecule, the TGI in test [8] is 42.7 µM; in test [9] it was 60.4 µM.
Regarding `C=Cc1cc(OC)c2c(c1)c(=O)oc1c2cc(OC)c2c(O)ccc(C3OC(C(C)O)C(O)C3O)c21` (stereo not drawn), the GI50 in [1] was 0.0269 µM; in test [2], 0.000944 µM; in test [3] it was 0.00996 µM; in test [4], 0.0223 µM; in [6], 0.00181 µM; in test [7], 0.0105 µM. Also, the GI50 in test [8] was 0.00366 µM; in [9] it was 0.0165 µM. Also, the TGI in test [1] turned out to be 0.0805 µM; in test [2], 0.321 µM; in [3], 0.0595 µM; in test [4] it was 0.318 µM; in test [6], 0.00384 µM; in [7], 0.153 µM. Also, the results for the TGI in test [8] and in [9] were 0.0431 µM and 0.718 µM, respectively.
In the case of `Cc1cc2nc(-c3ccc(O)c(O)c3)n(Cc3ccc(O)c(O)c3)c2cc1C`, the GI50 in [1] is 36 µM; in test [2], 24.4 µM; in [3], 45.6 µM; in [4], 26.9 µM; in test [5], 7.1 µM; in test [6], 21.2 µM. Besides, the GI50 was 22.5 µM in test [7], 20.2 µM in test [8] and over 100 µM in test [9]. Moreover, the TGI in [1] was 95.9 µM; in test [2] it was 80.7 µM; in [3] it was over 100 µM; in [4], 82.6 µM; in [5] it was 35.8 µM; in [6] it was over 100 µM. Besides, the TGI in test [7] is over 100 µM; in [8], 66.3 µM; in test [9], over 100 µM.
Take `Nc1ccn(C2CC3OCC3O2)c(=O)n1` (stereo not drawn): the TGI in [1], in test [2], in test [3], in [4], in [10] and in test [5] was over 100 µM throughout. Further, the TGI in [7], in test [8] and in test [9] was over 100 µM each time.
